A word on the melting point: it is the temperature of the solid-liquid transition.

On to `COC(=O)CCCCCOc1ccc(NC(=O)OCCOC(=O)Nc2ccc(OCCCCCC(=O)OC)cc2)cc1`, for which the melting point lay in the range of 118 to 120 °C.

`C[Si](C)(C)CCCCCCCCCCCCCCNc1ccc(C(=O)O)cc1` yielded a melting point of 105 to 107 °C.

For the molecule `COc1ccc(Cl)cc1NC(=O)[C@H]1[C@H](c2ccc(S(N)(=O)=O)cc2)C12CCCCC2` (relative stereo), the melting point fell in the range of 118 to 121 °C.

`C#C[C@H]1CC[C@H](C(=O)O)CC1` displayed a melting point of 161 to 162 °C.

Consider `COc1ccc2c(=O)n(S(=O)(=O)c3ccc(C)cc3)c(=O)[nH]c2c1`, for which the melting point lay in the range of 228 to 231 °C.

Molecule `FC(F)c1nc2ccccc2n1-c1nc(Oc2ccccc2)nc(N2CCOCC2)n1` came in with a melting point of 228 to 231 °C.

As for `Cc1nc(-n2ccc(-c3ccc(Cl)cc3)cc2=O)sc1C(=O)NCc1ccccc1`, the melting point lay within 265 to 267 °C.

Molecule `COc1cc(CC(=O)C(CNCCOc2ccc(C(=O)O)cc2OC)NC2CC2)ccc1NC(=O)Nc1ccccc1C` (stereo not drawn) showed a melting point of 135 to 140 °C.

`CS(=O)(=O)c1ccc(OC2SCC(O)C(O)C2O)cc1` (stereo not drawn) had a melting point of 180 °C.

Take `COc1ccc(CCCO)cc1OCc1coc(/C=C/c2ccccc2)n1`: the melting point lay within 126 to 128 °C.

The molecule `CC(Oc1ncn(-c2cccc(Br)c2)n1)C(N)=O` (stereo not drawn) gave a melting point of 141 to 144 °C.

For `COc1cc(OC)c2c(=O)cc(Oc3ccccc3)oc2c1C1CCN(C)CC1O` (stereo not drawn), the melting point was 238 to 239 °C.

On to `CCOC(=O)Cc1ccc(-c2nc(COc3ccc(COc4nn(-c5ccccc5)cc4/C=C/c4nc(CC)sc4C)cc3OC)c(C)o2)cc1`, for which the melting point lay in the range of 127 to 128 °C.

`CCOC1Oc2ccc3cc(C#N)c(Cn4cncn4)cc3c2C1(C)C` (stereo not drawn) displayed a melting point of 128 to 129 °C.

Regarding `O=C(CC(=O)C1CC1)c1ccc2snnc2c1`, the melting point fell in the range of 142 to 144 °C.

With `CC1(C)C(=O)Nc2cc3[nH]c(-c4ccc(-n5ccnc5)cc4)nc3cc21`, the melting point turned out to be 300 °C.

`CCCCCCCCCCC1CNC(=O)O1` (stereo not drawn) had a melting point of 86 to 87 °C.

The molecule `Cc1nc2cnc3ccccc3c2n1Cc1ccc(Cl)cc1` came in with a melting point of 183 to 185 °C.

The molecule `CC(C)(C)NC(=NC#N)Nc1cc(F)cc(Cl)c1` registered a melting point of 156 to 157 °C.

With `COc1cc2c(cc1OC)N(C)C(=O)CN=C2c1cccc(C=O)c1`, the melting point lay within 175 to 178 °C.

For `COc1ccc2[nH]c(S(=O)Cc3cc(N4CCOCC4)c(F)cn3)nc2c1` (stereo not drawn), the melting point is 109 to 111 °C.

As to `COc1cc(Nc2nccc(Nc3ccc(CC(=O)OCc4ccccc4)cc3)n2)cc(OC)c1OC`, the melting point was 149 °C.

On to `CCCCCCCCCCCCCCC(COC(C)=O)(COC(C)=O)NC(C)=O`, for which the melting point was 84 to 85.5 °C.

With `CCOC(=O)Cc1ccc(-c2ccc3c(=O)c(C(=O)NC)c(N)n(CC)c3n2)cc1`, the melting point was 195 °C.

With `Cn1nc2c(N)nc3ccccc3c2c1CC1(F)CCOCC1`, the melting point was 252 to 254 °C.

On to `COc1cc(CNc2ccc(C)cc2)cc(OC)c1OC`, for which the melting point was 94 to 96 °C.

`Cc1c(-c2ccc(OCc3ccccc3)cc2)n(Cc2ccc(OCCCN3CCCCC3)cc2)c2ccc(OCc3ccccc3)cc12`: the melting point was in the range of 104 to 106 °C.

Take `Fc1cc(CC2(Cc3ccnc(F)c3)c3ccccc3-c3cccnc32)ccn1`: the melting point fell in the range of 128 to 130 °C.

As to `COc1cccc(CC(=O)O)c1OCCCc1cn(-c2cccc(C(F)(F)F)n2)nc1C(C)C`, the melting point was in the range of 95 to 97 °C.

Molecule `O=c1oc(Nc2ccccc2I)nc2ccccc12` registered a melting point of 140 to 143 °C.

In turn, `CN(C)c1ccc(/C=C/c2ccc(F)cc2)cc1` had a melting point of 197 to 198 °C.

Consider `CC#CC(O)(c1ccc(C)cc1C)c1ccc(C)cc1C`, for which the melting point fell in the range of 64 to 65 °C.

Take `O=C(Nc1ccc(-n2nc(C3CC3)cc2C2CC2)nc1)c1ccncc1F`: the melting point lay within 192 to 195 °C.

On to `CCOC(=O)c1cn(-c2cccc(COCc3ccccn3)c2)cn1`, for which the melting point lay within 76.7 to 78.8 °C.

The molecule `CC(C)n1nc(-c2nc(C(N)=O)c(N)nc2-c2ccccc2Br)ccc1=O` registered a melting point of 132 to 135 °C.

`COc1cc(CNc2n[nH]c3ncnc(Nc4cccc(Cl)c4)c23)cc(OC)c1OC` came in with a melting point of 240 to 245 °C.

For `NC(=O)c1nn(-c2ccc3c(c2)OCO3)c2c1CCc1ccc(NC(=O)c3cccnc3N)cc1-2`, the melting point fell in the range of 265 to 267 °C.

In the case of `CC(=O)OCC1=C(C(=O)OC(C)(C)C)N2C(=O)C(N)C2SC1` (stereo not drawn), the melting point lay within 111 to 112 °C.

In turn, `N=C(N)N(CCCC(C=O)NC(=O)C1CCCN1C(=O)c1cc2ccccc2[nH]1)C(=O)OCc1ccccc1` (stereo not drawn) gave a melting point of 111 to 133 °C.

With `COc1cc2c(Nc3cccc(Cl)c3F)ncnc2cc1OC1CCN(C(=O)C2(O)CC2)CC1`, the melting point was in the range of 177 to 178 °C.

Molecule `COc1ccccc1Oc1ccccc1N` gave a melting point of 68 to 70 °C.

Molecule `C#CCc1c(C)nc2c(NCc3c(C)cccc3NC(=O)OC)cc(NC(C)=O)cn12` displayed a melting point of 125 to 128 °C.

Turning to `COc1cc(O)cc2c1C(Br)=C(c1ccc(O)cc1)C2=O`, the melting point amounted to 210 °C.

Regarding `Cc1csc2c1S(=O)(=O)N=C(NC(C)C)N2`, the melting point lay in the range of 152 to 154 °C.

Molecule `COc1nccc2c(N)cccc12` gave a melting point of 53 to 57 °C.

Take `CC(=O)N[C@@H](CSC(=O)C(C)(C)C)C(=O)NCCSC(=O)C(C)C`: the melting point lay in the range of 103 to 104 °C.

As for `CCCCCCS(=O)(=O)Oc1c(I)cc(I)cc1I`, the melting point was 70 to 71 °C.

In turn, `CCOCCc1c(-c2ccccc2)n2nnnc2n2ncnc12` registered a melting point of 114 °C.

For `O=C(O)CCOC(c1ccccc1)(c1ccccc1)c1ccccc1`, the melting point lay in the range of 159 to 161 °C.

`CC(C)c1cnn2c(NCc3ccccc3)nc(Cl)cc12` displayed a melting point of 74 to 75 °C.

The molecule `Cn1ncnc1COc1nn2c(-c3ccccc3F)nncc2c1-c1ccccn1` showed a melting point of 186 to 187 °C.

Molecule `CN1C(=O)c2ccccc2OC1(C)COc1ccc(N)cc1` (stereo not drawn) came in with a melting point of 162 to 164 °C.

`CCOc1nc(=O)n(C(=O)Nc2cccc(Cl)c2)s1` registered a melting point of 141 °C.

For the molecule `Cc1ccc(S(=O)(=O)OCC2Cc3cccc(-c4ccsc4)c3O2)cc1` (stereo not drawn), the melting point is 90 to 92 °C.

In the case of `C=CCCC[C@H]1CC[C@H](c2ccc(C(C)=O)cc2)CC1`, the melting point turned out to be 47.6 °C.

For `COc1ccc(C(=O)c2cc(-c3ccc(NC(C)=O)cc3)c(N3CCOCC3)s2)cc1`, the melting point amounted to 198 °C.

In turn, `CCCCCCCCOc1cc(OC)ccc1O` returned a melting point of 36 to 38 °C.

Molecule `CCOC(=O)c1ccc(-c2n[nH]c3ccccc23)cc1` returned a melting point of 133 to 135 °C.

In the case of `CC(C#N)c1cccc2c(-c3ccc(Cl)cc3)nccc12` (stereo not drawn), the melting point lay in the range of 128 to 130 °C.

For `COc1ncccc1C(=O)N(C(C)C)C(C)C`, the melting point is 109 °C.

For the molecule `CC(C)(C)Nc1nc(C#N)c(C#N)nc1Cl`, the melting point fell in the range of 169 to 173 °C.

Take `CC1(C)C=Cc2cc(S(=O)(=O)c3ccccc3)ccc2O1`: the melting point lay within 95 to 96 °C.

Consider `CC1CCCCC1C(=O)Nc1ccc(-c2ncc(-c3ccc(NC(=O)C4CCCCCC4)cc3)[nH]2)cc1` (stereo not drawn), for which the melting point lay in the range of 258 to 260 °C.

The values above are taken from a melting point compilation (Tetko et al.; mined from patent text by program, amines drawn as free bases though some values may be those of a salt).
